From patent US20260217701A1, “SELECTIVE BET INHIBITORS AND USES THEREOF” (Tay Therapeutics Limited, priority 2022, published 2026)

What was measured:
BRD4 BD2 = biological target: T1, BRD4 BD2 (Homo sapiens, UniProt O60885); experiment: NanoBRET bromodomain assay, NanoLuc-BRD4-BD2 in HEK293 cells; type: binding; conditions: for Fold Selectivity BRD4 BD1/BD2: IC50 BD1/IC50 BD2, qualitative if an IC50 is at the upper limit
T1 construct: HEK293 cells were transfected using NanoLuc-BRD4-BD1 or NanoLuc-BRD4-BD2 fusion vectors
Description: (§1) Plates were then incubated at 37° C.+5% CO2 incubator for 2 hours.
(§2) Fold Selectivity Calculated (IC50 BD1/IC50 BD2).

BRD4 BD1 = biological target: T2, BRD4 BD1 (Homo sapiens, UniProt O60885); experiment: NanoBRET bromodomain assay, NanoLuc-BRD4-BD1 in HEK293 cells; type: binding
T2 construct: HEK293 cells were transfected using NanoLuc-BRD4-BD1 or NanoLuc-BRD4-BD2 fusion vectors
Description: Exemplary compounds of the disclosure are active against BRD4 BD2 and selective over BRD4 BD1. BRD4 is a representative example of the BET family, as the binding sites of all BET family members are structurally similar. […] IC50s and fold selectivity's are determined as described below and are represented in Table 1.
as §1, §2

Row | Compound | IC50 (BRD4 BD2) [nM] | Fold Selectivity BRD4 BD1/BD2 (BRD4 BD2) | IC50 (BRD4 BD1) [nM]
1 | Cn1cc(-c2ccccc2)c(-c2cn(C)c(=O)c3[nH]c(-c4cnn(C(F)(F)F)c4)c(Cl)c23)cc1=O [Example 10, 3-chloro-6-methyl-4-(1-methyl-2-oxo-5-phenyl-1,2-dihydropyridin-4-yl)-2-(1-(trifluoromethyl)-1H-pyrazol-4-yl)-1,6-dihydro-7H-pyrrolo[2,3-c]pyridin-7-one] | 10 to 50 | xxx (Fold >200 and ≤1000) | > 1000
2 | COCc1ccc(-c2cn(C)c(=O)cc2-c2cn(C)c(=O)c3[nH]c(-c4cnn(C(F)(F)F)c4)cc23)cc1 [Example 8, 4-(5-(4-(methoxymethyl)phenyl)-1-methyl-2-oxo-1,2-dihydropyridin-4-yl)-6-methyl-2-(1-(trifluoromethyl)-1H-pyrazol-4-yl)-1,6-dihydro-7H-pyrrolo[2,3-c]pyridin-7-one] | < 10 | xxxx (Fold >1000) | > 1000
3 | Cc1cc(-c2cc3c(-c4cc(=O)n(C)cc4-c4ccc5c(c4)COC5)cn(C)c(=O)c3[nH]2)cc(C)n1.Cl [Example 33, 4-(5-(1,3-dihydroisobenzofuran-5-yl)-1-methyl-2-oxo-1,2-dihydropyridin-4-yl)-2-(2,6-dimethylpyridin-4-yl)-6-methyl-1,6-dihydro-7H-pyrrolo[2,3-c]pyridin-7-one hydrochloride] | < 10 | xxxx (Fold >1000) | > 1000
4 | Cn1cc(-c2cc(=O)n(CCOC(F)F)cc2-c2ccccc2)c2cc(-c3cnn(C(F)(F)F)c3)[nH]c2c1=O [Example 22, 4-(1-(2-(difluoromethoxy)ethyl)-2-oxo-5-phenyl-1,2-dihydropyridin-4-yl)-6-methyl-2-(1-(trifluoromethyl)-1H-pyrazol-4-yl)-1,6-dihydro-7H-pyrrolo[2,3-c]pyridin-7-one] | < 10 | xxxx (Fold >1000) | > 1000
5 | CCn1cc(-c2cc(=O)n(C)cc2-c2ccccc2)c2cc(-c3cnn(C(F)(F)F)c3)[nH]c2c1=O [Example 19, 6-ethyl-4-(1-methyl-2-oxo-5-phenyl-1,2-dihydropyridin-4-yl)-2-(1-(trifluoromethyl)-1H-pyrazol-4-yl)-1,6-dihydro-7H-pyrrolo[2,3-c]pyridin-7-one] | < 10 | xxxx (Fold >1000) | > 1000
6 | COCc1ccc(-c2cc3c(-c4cc(=O)n(C)cc4-c4ccccc4)cn(C)c(=O)c3[nH]2)cc1 [Example 46, 2-(4-(methoxymethyl)phenyl)-6-methyl-4-(1-methyl-2-oxo-5-phenyl-1,2-dihydropyridin-4-yl)-1,6-dihydro-7H-pyrrolo[2,3-c]pyridin-7-one] | < 10 | xxxx (Fold >1000) | > 1000
7 | CSCc1cccc(-c2cn(C)c(=O)cc2-c2cn(C)c(=O)c3[nH]c(-c4cnn(C(F)(F)F)c4)cc23)c1 [Example 25, 6-methyl-4-(1-methyl-5-(3-((methylthio)methyl)phenyl)-2-oxo-1,2-dihydropyridin-4-yl)-2-(1-(trifluoromethyl)-1H-pyrazol-4-yl)-1,6-dihydro-7H-pyrrolo[2,3-c]pyridin-7-one] | < 10 | xxxx (Fold >1000) | > 1000
8 | CC(C)n1cc(-c2cc3c(-c4cc(=O)n(C)cc4-c4cccc(CS(C)(=O)=O)c4)cn(C)c(=O)c3[nH]2)cn1 [Example 72] | 200 to 1000 | x (Fold >2 and ≤50) | > 1000
9 | COc1cccc(-c2cc3c(-c4cc(=O)n(C5CC5)cc4Oc4c(C)cccc4C)cn(C)c(=O)c3[nH]2)c1F [Example 40, 4-(1-cyclopropyl-5-(2,6-dimethylphenoxy)-2-oxo-1,2-dihydropyridin-4-yl)-2-(2-fluoro-3-methoxyphenyl)-6-methyl-1,6-dihydro-7H-pyrrolo[2,3-c]pyridin-7-one] | 10 to 50 | xxx (Fold >200 and ≤1000) | > 1000
10 | Cc1cccc(C)c1Oc1cn(C)c(=O)cc1-c1cn(C)c(=O)c2[nH]c(-c3cc(F)c(F)cc3F)cc12 [Example 88] | 10 to 50 | xxx (Fold >200 and ≤1000) | > 1000
11 | CSCCn1cc(-c2ccccc2)c(-c2cn(C)c(=O)c3[nH]c(-c4cnn(C(F)(F)F)c4)cc23)cc1=O [Example 23, 6-methyl-4-(1-(2-(methylthio)ethyl)-2-oxo-5-phenyl-1,2-dihydropyridin-4-yl)-2-(1-(trifluoromethyl)-1H-pyrazol-4-yl)-1,6-dihydro-7H-pyrrolo[2,3-c]pyridin-7-one] | < 10 | xxxx (Fold >1000) | > 1000
12 | COCCOc1ccc(-c2cn(C)c(=O)cc2-c2cn(C)c(=O)c3[nH]c(-c4cnn(C(F)(F)F)c4)cc23)cc1 [Example 9, 4-(5-(4-(2-methoxyethoxy)phenyl)-1-methyl-2-oxo-1,2-dihydropyridin-4-yl)-6-methyl-2-(1-(trifluoromethyl)-1H-pyrazol-4-yl)-1,6-dihydro-7H-pyrrolo[2,3-c]pyridin-7-one] | < 10 | xxxx (Fold >1000) | > 1000
13 | Cn1cc(-c2cccc(C3COC3)c2)c(-c2cn(C)c(=O)c3[nH]c(-c4ccc(F)cc4F)cc23)cc1=O [Example 35, 2-(2,4-difluorophenyl)-6-methyl-4-(1-methyl-5-(3-(oxetan-3-yl)phenyl)-2-oxo-1,2-dihydropyridin-4-yl)-1,6-dihydro-7H-pyrrolo[2,3-c]pyridin-7-one] | 10 to 50 | xxx (Fold >200 and ≤1000) | > 1000
14 | Cn1cc(-c2cccc3c2COC3)c(-c2cn(C)c(=O)c3[nH]c(-c4ccc(F)cc4F)cc23)cc1=O [Example 6, 2-(2,4-difluorophenyl)-4-(5-(1,3-dihydroisobenzofuran-4-yl)-1-methyl-2-oxo-1,2-dihydropyridin-4-yl)-6-methyl-1,6-dihydro-7H-pyrrolo[2,3-c]pyridin-7-one] | < 10 | xxxx (Fold >1000) | > 1000
15 | CN(C)CCOc1cccc(-c2cn(C)c(=O)cc2-c2cn(C)c(=O)c3[nH]c(-c4cnn(C(F)(F)F)c4)cc23)c1 [Example 3, 4-(5-(3-(2-(dimethylamino)ethoxy)phenyl)-1-methyl-2-oxo-1,2-dihydropyridin-4-yl)-6-methyl-2-(1-(trifluoromethyl)-1H-pyrazol-4-yl)-1,6-dihydro-7H-pyrrolo[2,3-c]pyridin-7-one] | 50 to 200 | xx (Fold >50 and ≤200) | > 1000
16 | Cc1cccc(C)c1Oc1cn(C)c(=O)cc1-c1cn(C)c(=O)c2[nH]c(-c3ccccn3)cc12 [Example 38, 4-(5-(2,6-dimethylphenoxy)-1-methyl-2-oxo-1,2-dihydropyridin-4-yl)-6-methyl-2-(pyridin-2-yl)-1,6-dihydro-7H-pyrrolo[2,3-c]pyridin-7-one] | 10 to 50 | xxx (Fold >200 and ≤1000) | > 1000
17 | Cc1cccc(C)c1Oc1cn(C)c(=O)cc1-c1cn(C)c(=O)c2[nH]c(-c3ccc(F)c(F)c3F)cc12 [Example 93] | 50 to 200 | xx (Fold >50 and ≤200) | > 1000
18 | Cn1cc(-c2cccc(C(C)(C)O)c2)c(-c2cn(C)c(=O)c3[nH]c(-c4ccc(F)cc4F)cc23)cc1=O [Example 51, 2-(2,4-difluorophenyl)-4-(5-(3-(2-hydroxypropan-2-yl)phenyl)-1-methyl-2-oxo-1,2-dihydropyridin-4-yl)-6-methyl-1,6-dihydro-7H-pyrrolo[2,3-c]pyridin-7-one] | < 10 | xxxx (Fold >1000) | > 1000
19 | CC(C)c1cc(-c2cc3c(-c4cc(=O)n(C)cc4-c4ccccc4)cn(C)c(=O)c3[nH]2)ccc1F [Example 71] | 50 to 200 | xx (Fold >50 and ≤200) | > 1000
20 | COCc1cccc(-c2cc3c(-c4cc(=O)n(C)cc4-c4ccccc4)cn(C)c(=O)c3[nH]2)c1 [Example 85] | < 10 | xxxx (Fold >1000) | > 1000
21 | Cc1cccc(C)c1Oc1cn(C)c(=O)cc1-c1cn(C)c(=O)c2[nH]c(-c3cnn(CCF)c3)cc12 [Example 14, 4-(5-(2,6-dimethylphenoxy)-1-methyl-2-oxo-1,2-dihydropyridin-4-yl)-2-(1-(2-fluoroethyl)-1H-pyrazol-4-yl)-6-methyl-1,6-dihydro-7H-pyrrolo[2,3-c]pyridin-7-one] | < 10 | x (Fold >2 and ≤50) | 50 to 500
22 | Cc1cc(-c2cc3c(-c4cc(=O)n(C)cc4-c4ccc(C#N)cc4)cn(C)c(=O)c3[nH]2)cc(C)n1.Cl [Example 29, 4-(4-(2-(2,6-dimethylpyridin-4-yl)-6-methyl-7-oxo-6,7-dihydro-1H-pyrrolo[2,3-c]pyridin-4-yl)-1-methyl-6-oxo-1,6-dihydropyridin-3-yl)benzonitrile hydrogen chloride] | 10 to 50 | xxx (Fold >200 and ≤1000) | > 1000
23 | COCc1cccc(-c2cn(C)c(=O)cc2-c2cn(C)c(=O)c3[nH]c(-c4cnn(C(F)(F)F)c4)cc23)c1 [Example 7, 4-(5-(3-(methoxymethyl)phenyl)-1-methyl-2-oxo-1,2-dihydropyridin-4-yl)-6-methyl-2-(1-(trifluoromethyl)-1H-pyrazol-4-yl)-1,6-dihydro-7H-pyrrolo[2,3-c]pyridin-7-one] | < 10 | xxxx (Fold >1000) | > 1000
24 | Cn1cc(-c2ccccc2)c(-c2cn(C)c(=O)c3[nH]c(-c4ccc(F)c(C(C)(C)O)c4)cc23)cc1=O [Example 69] | < 10 | xxx (Fold >200 and ≤1000) | 500 to 1000
